Experimental data as given in ChEMBL document CHEMBL4477261, “Design, synthesis and evaluation of the multidrug resistance-reversing activity of pyridine acid esters of podophyllotoxin in human leukemia cells” (Bioorg Med Chem Lett, 2016).
Counter-ions that a name gives are not always drawn. Active and inactive are the calls of the source. No cut-off for these calls is given here.

What was measured:
K562/Adr [1] = test: Induction of apoptosis in human K562/ADR cells assessed as nuclear fragmentation at 0.05 uM after 48 hrs by Hoechst 33342 staining based fluorescent microscopic analysis; assay type: functional, cell-based
K562/Adr [2] = test: Induction of apoptosis in human K562/ADR cells assessed as early apoptotic cells at 0.05 uM after 48 hrs by Annexin V-APC/7-AAD staining based flow cytometry (reference value: 1.99%); assay type: functional
K562/Adr [3] = test: Cell cycle arrest in human K562/ADR cells assessed as accumulation in S phase at 0.05 uM after 48 hrs by propidium iodide staining based flow cytometry; assay type: functional
K562/Adr [4] = test: Effect on total ERK1/2 protein expression level in human K562/ADR cells at 0.05 uM after 48 hrs by Western blot analysis relative to control; assay type: ADME, cell-based
[5] = target: T1, Mitogen-activated protein kinase; ERK1/ERK2 (Homo sapiens) (UniProt P27361+P28482); test: Activation of ERK1/2 signalling in human K562/ADR cells assessed as suppression of CDK1 protein expression at 0.05 uM after 48 hrs by Western blot analysis relative to control; assay type: cell-based
K562 [6] = test: Resistance factor, ratio of IC50 for human K562/ADR cells to IC50 for human K562 cells; assay type: functional
[7] = target: T1, Mitogen-activated protein kinase; ERK1/ERK2 (Homo sapiens); test: Activation of ERK1/2 signalling in human K562/ADR cells assessed as suppression of P-gp expression at 0.05 uM after 48 hrs by Western blot analysis relative to control; assay type: cell-based
[8] = target: T1, Mitogen-activated protein kinase; ERK1/ERK2 (Homo sapiens); test: Activation of ERK1/2 signalling in human K562/ADR cells assessed as increase in cleaved caspase-8 expression at 0.05 uM after 48 hrs by Western blot analysis relative to control; assay type: cell-based
[9] = target: T1, Mitogen-activated protein kinase; ERK1/ERK2 (Homo sapiens); test: Activation of ERK1/2 signalling in human K562/ADR cells assessed as increase in cleaved caspase-9 expression at 0.05 uM after 48 hrs by Western blot analysis relative to control; assay type: cell-based
K562/Adr [10] = test: Induction of apoptosis in human K562/ADR cells assessed as necrotic cells at 0.05 uM after 48 hrs by Annexin V-APC/7-AAD staining based flow cytometry (reference value: 2.47%); assay type: functional
K562/Adr [11] = test: Induction of apoptosis in human K562/ADR cells assessed as chromatin condensation at 0.05 uM after 48 hrs by Hoechst 33342 staining based fluorescent microscopic analysis; assay type: functional, cell-based
[12] = target: T1, Mitogen-activated protein kinase; ERK1/ERK2 (Homo sapiens); test: Induction of ERK1/2 phosphorylation in human K562/ADR cells at 0.05 uM after 48 hrs by Western blot analysis relative to control; assay type: cell-based
K562/Adr [13] = test: Antiproliferative activity against human K562/ADR cells after 72 hrs by CCK8 assay; assay type: functional, cell-based
[14] = target: T1, Mitogen-activated protein kinase; ERK1/ERK2 (Homo sapiens); test: Activation of ERK1/2 signalling in human K562/ADR cells assessed as suppression of CyclinB1 protein expression at 0.05 uM after 48 hrs by Western blot analysis relative to control; assay type: cell-based
K562/Adr [15] = test: Induction of apoptosis in human K562/ADR cells assessed as late apoptotic cells at 0.05 uM after 48 hrs by Annexin V-APC/7-AAD staining based flow cytometry (reference value: 3.89%); assay type: functional
[16] = target: T1, Mitogen-activated protein kinase; ERK1/ERK2 (Homo sapiens); test: Activation of ERK1/2 signalling in human K562/ADR cells assessed as increase in cleaved caspase-3 expression at 0.05 uM after 48 hrs by Western blot analysis relative to control; assay type: cell-based
K562/Adr [17] = test: Induction of apoptosis in human K562/ADR cells assessed as live cells at 0.05 uM after 48 hrs by Annexin V-APC/7-AAD staining based flow cytometry (reference value: 91.65%); assay type: functional
K562 [18] = test: Antiproliferative activity against human K562 cells after 72 hrs by CCK8 assay; assay type: functional, cell-based; settings: K562, 72 h

T1 sequence (P27361 whole entry, looked up): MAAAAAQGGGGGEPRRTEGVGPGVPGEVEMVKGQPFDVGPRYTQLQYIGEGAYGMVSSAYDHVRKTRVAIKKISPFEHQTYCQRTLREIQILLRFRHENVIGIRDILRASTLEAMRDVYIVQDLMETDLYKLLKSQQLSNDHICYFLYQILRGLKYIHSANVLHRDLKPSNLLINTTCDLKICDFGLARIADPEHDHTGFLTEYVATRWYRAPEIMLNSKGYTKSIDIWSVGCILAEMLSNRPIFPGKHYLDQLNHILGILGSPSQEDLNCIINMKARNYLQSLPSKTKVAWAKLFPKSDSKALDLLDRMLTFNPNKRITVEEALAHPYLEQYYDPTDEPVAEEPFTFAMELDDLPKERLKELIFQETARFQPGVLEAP
T1 sequence (P28482 whole entry, looked up): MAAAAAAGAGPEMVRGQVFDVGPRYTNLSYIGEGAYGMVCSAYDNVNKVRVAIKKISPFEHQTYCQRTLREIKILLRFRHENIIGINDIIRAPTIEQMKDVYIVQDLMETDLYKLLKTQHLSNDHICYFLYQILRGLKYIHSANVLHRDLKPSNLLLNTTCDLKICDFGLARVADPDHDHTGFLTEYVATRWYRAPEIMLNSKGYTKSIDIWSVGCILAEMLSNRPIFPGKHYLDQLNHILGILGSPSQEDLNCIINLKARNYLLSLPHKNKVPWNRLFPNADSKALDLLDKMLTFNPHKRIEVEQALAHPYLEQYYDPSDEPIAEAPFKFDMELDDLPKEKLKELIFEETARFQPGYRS

Row | SMILES | Activity (K562/Adr [1]) | Activity (K562/Adr [2]) | Activity (K562/Adr [3]) | fold change (FC) (K562/Adr [4]) | fold change (FC) [5] | Ratio IC50 (K562 [6]) | fold change (FC) [7] | fold change (FC) [8] | fold change (FC) [9] | Activity (K562/Adr [10]) | Activity (K562/Adr [11]) | fold change (FC) [12] | IC50 (K562/Adr [13]) | fold change (FC) [14] | Activity (K562/Adr [15]) | fold change (FC) [16] | Activity (K562/Adr [17]) | IC50 (K562 [18])
1 | COc1cc([C@@H]2c3cc4c(cc3[C@H](O)[C@H]3COC(=O)[C@H]23)OCO4)cc(OC)c1OC [PODOFILOX] | Active | 7.94% | Active | 0.88 | 0.4 | 4.166 | 0.03 | 0.7 | 0.74 | 7.73% | Active | 0.63 | 25 nM | 0.02 | 43.5% | 0.76 | 40.83% | –
2 | COc1cccc2c1C(=O)c1c(O)c3c(c(O)c1C2=O)C[C@@](O)(C(=O)CO)C[C@@H]3O[C@H]1C[C@H](N)[C@H](O)[C@H](C)O1 [DOXORUBICIN HYDROCHLORIDE] | – | – | – | – | – | – | – | – | – | – | – | – | 18800 nM | – | – | – | – | 220 nM
3 | COc1ccc(C(=O)O[C@H]2c3cc4c(cc3[C@@H](c3cc(OC)c(OC)c(OC)c3)[C@H]3C(=O)OC[C@@H]32)OCO4)cn1 | – | – | – | – | – | 2.12 | – | – | – | – | – | – | 123 nM | – | – | – | – | 58 nM
